# Like-named read-outs stand apart in the source and are kept apart here.
# How the values were obtained:
# [1] = Rat bioavailability of the indanolic ring hydroxy prodrug, mother compound in plasma by LC-MS; assay type: in vivo, rats
# Method: Bioavailability of the ring indanolic ring hydroxy compound of Example B-1 was assessed in rats by the procedure of Biological Example 5 also using a propylene glycol vehicle, 58 mg/kg (0.047 mmol/kg), but wherein the mother compound N1, N6-di [(1S,2R)-2-hydroxy-2,3-dihydro-1-H-1-indenyl]-(2R, 3R, 5R)-2,5-di(benzyloxy)-3,4-dihydroxyhexanediamide was assayed by LC-MS using SiM (single ion monitoring) with M/Z ion detector 653. Plasma results are presented as μM in the table below: […]
# [2] = rat, in vivo, po
# Method: At 30, 60, 120, 240 & 360 minutes, 0.2 ml blood were collected, centrifuged and frozen for later analysis. […] Aliquots comprising 40–100 μl of each plasma sample are mixed with an equal volume of acetonitrile (10 seconds, Vibrofex). The sample is centrifuged (2 min, 14000 RPM) and 30 μl of the supernatant is injected into an HPLC system, as follows.
# [3] = Rat pharmacokinetics: FLG in serum after oral prodrug, absolute oral bioavailability; conditions: in vivo
# Text: (§1) Biomed. Anal. 13, 369–376.
# [4] = Bioavailability of FLG as detected by the present inventors; conditions: in vivo; FLG itself
# Text: International patent application no. […] The former compound FLG is very active in vitro however the present inventors have detected that its bioavailability is so poor-around 4%-that the in vivo utility of the compound has thus far been limited to intraperitoneally or subcutaneously administered animal models.
# [5] = tested on: HIV-1111B TIBO^r; experiment: XTT dye uptake assay utilising MT4 cells; assay type: cell-based, HIV-1; conditions: Human immunodeficiency virus 1, MT4, read-out: IC50, concentration of metabolite inducing 50% inhibition of viral replication
# Text: (§2) In the XTT dye uptake assay of Koshida et al Antimicrob Agents Chemother.
# [6] = tested on: HIV-1111B; experiment: XTT dye uptake assay utilising MT4 cells; assay type: cell-based, HIV-1; conditions: Human immunodeficiency virus 1, MT4, read-out: IC50, concentration of metabolite inducing 50% inhibition of viral replication
# Text: as §2
# [7] = tested on: HIV-1^2441 AZT^r; experiment: XTT dye uptake assay utilising MT4 cells; assay type: cell-based; conditions: Human immunodeficiency virus 1, MT4, read-out: IC50, concentration of metabolite inducing 50% inhibition of viral replication
# Text: as §2
# [8] = tested on: HIV-1^29/9; experiment: XTT dye uptake assay utilising MT4 cells; assay type: cell-based; conditions: Human immunodeficiency virus 1, read-out: IC50, concentration of metabolite inducing 50% inhibition of viral replication
# Text: as §2
# [9] = tested on: HIV-2SBL6669; experiment: XTT dye uptake assay utilising MT4 cells; assay type: cell-based; conditions: Human immunodeficiency virus 2, read-out: IC50, concentration of metabolite inducing 50% inhibition of viral replication
# Text: as §2
# [10] = tested on: SIVSM; experiment: XTT dye uptake assay utilising MT4 cells; assay type: cell-based, SIV; conditions: Simian immunodeficiency virus, read-out: IC50, concentration of metabolite inducing 50% inhibition of viral replication
# Text: as §2
# [11] = tested on: duck hepatitis B virus (DHBV); experiment: DHBV model in ducks, serum DHBV DNA by dot blot-hybridisation; assay type: in vivo
# Text: The activity of antivirals on duck hepatitis B virus (DHBV) in ducks is an acknowledged animal model for the validation of in vivo hepatitis B activity in humans. […] The results are depicted in FIGS. […] The ducks were two days old when inoculated with DHBV and 18 days old when treatment was commenced. The metabolite and PBS (controls) were given intraperitoneally for 10 days as twice daily injections, at 8 am and 4 pm. Treatment lasted 33 days and the animals were followed 5 weeks after the end of treatment.
# The efficacy of treatment was followed by dot blot-hybridisation of DHBV DNA in serum using a radioactive probe and the amount of DHBV measured as the amount of radioactivity hybridised. FIG. 1 plots the amount of DHBV DNA in serum at different timepoints before, during and after treatment.
# [12] = Weight gain of treated DHBV-infected ducks (toxicity); assay type: in vivo
# Text: The activity of antivirals on duck hepatitis B virus (DHBV) in ducks is an acknowledged animal model for the validation of in vivo hepatitis B activity in humans. […] The ducks were two days old when inoculated with DHBV and 18 days old when treatment was commenced. […] Treatment lasted 33 days and the animals were followed 5 weeks after the end of treatment.
# [13] = Protein binding in serum samples; assay type: in vitro ADME
# Text: as §1
# [14] = FLG itself; **literature value; cited from earlier work
smiles,measurement,setting,value
CC(C)C(N)C(=O)OC1Cc2ccccc2C1NC(=O)[C@H](OCc1ccccc1)C(O)C(O)[C@@H](OCc1ccccc1)C(=O)N[C@H]1c2ccccc2CC1OC(=O)C(N)C(C)C (some centres unmarked),bioavailability,"[1]; rats, same assay, comparator dosed itself",below the level of detection
"CCC(=O)c1ccc(F)c([C@@H]2C[C@@H]2NC(=O)Nc2ccc(C#N)cn2)c1OCOC(=O)[C@@H](N)[C@@H](C)CC (relative stereo) [Example P-1, (1S. 2S)-N-{cis-2-[6-fluoro-2-(L-isoleucyloxymethyloxy)-3-propionylphenyl]cyclopropyl}-N′-[2-(5-cyanopyridyl)]urea]",Bioavailability0–6 hours,[2],34%
"CCCCCCCCCCCCCCCCCC(=O)OCC(CCCC(=O)OC[C@H]1O[C@@H](n2cnc3c(=O)[nH]c(N)nc32)C[C@@H]1F)COC(=O)[C@@H](N)C(C)C (stereo partly drawn) [Example 12, 2′ 3′-dideoxy-3′-fluoro-5′-O-[5-(L-valyloxymethyl)-6-stearoyloxyhexanoyl]guanosine]",6 h absolute bioavail. %,[3],29%
CCCCCCCCCCCCCCCCCC(=O)OCC(COC(=O)[C@@H](N)C(C)C)CC(=O)OC[C@H]1O[C@@H](n2cnc3c(=O)[nH]c(N)nc32)C[C@@H]1F (some centres unmarked) [Example 13],6 h absolute bioavail. %,[3],37%
CCCCCCCCCCCCCCCCCC(=O)OC(COC(=O)[C@@H](N)C(C)C)C(=O)OC[C@H]1O[C@@H](n2cnc3c(=O)[nH]c(N)nc32)C[C@@H]1F (some centres unmarked) [Example 25],6 h absolute bioavail. %,[3],81.5%
"CC(C)[C@H](N)C(=O)OCC(COC(=O)[C@@H](N)C(C)C)CC(=O)OC[C@H]1O[C@@H](n2cnc3c(=O)[nH]c(N)nc32)C[C@@H]1F [Example 26, 2′, 3′-Dideoxy-3′-fluoro-5′-O-[3,3-bis(L-valyloxymethyl)-propionic acid] guanosine]",12 h absolute bioavail. %,[3],67.5%
"CC(C)[C@H](N)C(=O)OCC(COC(=O)[C@@H](N)C(C)C)OC(=O)CCC(=O)OC[C@H]1O[C@@H](n2cnc3c(=O)[nH]c(N)nc32)C[C@@H]1F [Example 29, 2′, 3′-Dideoxy-3′-fluoro-5′-O-3-[1,3-bis-(L-valyloxy]-2-propyloxycarbonylpropanoyl]guanosine]",6 h absolute bioavail. %,[3],51%
"Nc1nc2c(ncn2[C@H]2C[C@H](F)[C@@H](CO)O2)c(=O)[nH]1 [FLG, 2′,3′-dideoxy, 3′-fluoroguanosine]",bioavailability,[4],~4%
same,IC50,[5],1 µg/mL
same,IC50,[6],1 µg/mL
same,IC50,[7],1 µg/mL
same,IC50,[8],0.7 µg/mL
same,IC50,[9],2 µg/mL
same,IC50,[10],1 µg/mL
same,inhibition of DHBV in vivo,[11]; 0.3 mg/kg/day,considerable inhibition of DHBV in vivo
same,amount of DHBV DNA in serum during treatment,"[11]; 5 mg/kg/day intraperitoneally, twice daily injections","dramatic decrease in the amount of DHBV in serum during the first 10 days of treatment, whereupon for the remainder of treatment the level of DHBV DNA was below the detection limit"
same,DHBV in serum after the finish of treatment,"[11]; after the finish of treatment, followed 5 weeks",virus reappeared in the serum
same,serum DHBV DNA during treatment,[11]; repeat experiments at 30 and 3 mg/kg/day and with congenitally infected ducks,dramatic fall in serum DHBV DNA to under the detection threshold
same,weight of the ducks during treatment,"[12]; 5 mg/kg/day, compared with PBS treated controls",increased in the same way as in the control
same,toxicity judged from growth rate,"[12]; ducks, treatment period",clearly non-toxic
same,protein binding,[13],neglible
same,12 h absolute bioavail. %,[14],9%**
"O=C(N[C@H]1c2ccccc2C[C@H]1O)[C@H](OCc1ccccc1)C(O)[C@@H](O)[C@@H](OCc1ccccc1)C(=O)N[C@H]1c2ccccc2C[C@H]1O (stereo partly drawn) [mother compound, N1, N6-di [(1S,2R)-2-hydroxy-2,3-dihydro-1-H-1-indenyl]-(2R, 3R, 5R)-2,5-di(benzyloxy)-3,4-dihydroxyhexanediamide]",bioavailability,"[1]; rat, in vivo",below level of detection
